biological target: T1, human NaV1.8 (Homo sapiens, UniProt Q9Y5Y9); assay: Nav1.8 Qube® Assay (automated 384-well patch-clamp, inhibition of sodium current); format: cell-based; conditions: human NaV1.8 channels stably expressed in HEK 293 cells, room temperature
T1 construct: expressed in transfected cells
Experimental: Compounds were tested on human NaV1.8 and NaV1.5 channels stably expressed in human embryo kidney (HEK) 293 cells. Sodium current measurements on Qube® were conducted as follows: automated 384-well patch-clamp assays on the Qube® platform (Sophion Biosciences) were used to measure the inhibition of sodium flow through human NaV1.8 and NaV1.5 channels. Whole-cell voltage-clamp recordings were performed in QChips® (Sophion Biosciences) at room temperature. NaV1.8 current measurements on Qube® were obtained as follows: NaV1.8 currents were elicited with a 10 second 1 Hertz (Hz) pulse train from a holding potential of −90 millivolts (mV), delivered to the cells once per minute in the control condition (DMSO only) and after compound addition. The 1 hertz pulse train stimulation consisted of ten test pulses to 10 millivolt (mV) for 20 milliseconds (ms), each of which was followed by a 980 millisecond repolarization to −67 millivolts. At the end of the 10 second pulse train stimulation, a 5 second hyperpolarization step to −100 millivolt (mV) was used to recover NaV1.8 from fast inactivation. The peak currents elicited by the 1st and 10th test pulses were used to determine IC50 values for resting inhibition and inactivated state inhibition. NaV1.5 current measurements on Qube® were obtained as follows: NaV1.5 currents were elicited with a 20 second 3 Hertz pulse train in the control condition (DMSO only) and after compound addition. The pulse train consisted of sixty 20 millisecond test pulses to 0 millivolt from a holding potential of −80 millivolt (mV). The average peak currents elicited by the last 3 test pulses were used to determine IC50 values for NaV1.5 inhibition.
The following buffers were used for the Qube® recordings: External buffer for NaV1.8 Qube® recording: 150 NaCl, 2 CaCl2, 5 KCl, 1 Mg Cl2, 10 HEPES, 12 Dextrose; External buffer for Qube® NaV1.5 recording: 120 N-Methyl-D-Glucamine, 40 NaCl, 1 KCl, 2.7 CaCl2, 5 HEPES, 0.5 MgCl2; and Internal buffer for Qube® recording: 120 CsF, 30 CsCl, 10 EGTA, 5 HEPES, 5 NaF, 2 MgCl2.
For all Qube® experiments offline analysis was used to determine percent inhibition as a function of drug concentration. IC50 values were determined by fitting to the Hill equation.

T1 sequence (Q9Y5Y9 whole entry): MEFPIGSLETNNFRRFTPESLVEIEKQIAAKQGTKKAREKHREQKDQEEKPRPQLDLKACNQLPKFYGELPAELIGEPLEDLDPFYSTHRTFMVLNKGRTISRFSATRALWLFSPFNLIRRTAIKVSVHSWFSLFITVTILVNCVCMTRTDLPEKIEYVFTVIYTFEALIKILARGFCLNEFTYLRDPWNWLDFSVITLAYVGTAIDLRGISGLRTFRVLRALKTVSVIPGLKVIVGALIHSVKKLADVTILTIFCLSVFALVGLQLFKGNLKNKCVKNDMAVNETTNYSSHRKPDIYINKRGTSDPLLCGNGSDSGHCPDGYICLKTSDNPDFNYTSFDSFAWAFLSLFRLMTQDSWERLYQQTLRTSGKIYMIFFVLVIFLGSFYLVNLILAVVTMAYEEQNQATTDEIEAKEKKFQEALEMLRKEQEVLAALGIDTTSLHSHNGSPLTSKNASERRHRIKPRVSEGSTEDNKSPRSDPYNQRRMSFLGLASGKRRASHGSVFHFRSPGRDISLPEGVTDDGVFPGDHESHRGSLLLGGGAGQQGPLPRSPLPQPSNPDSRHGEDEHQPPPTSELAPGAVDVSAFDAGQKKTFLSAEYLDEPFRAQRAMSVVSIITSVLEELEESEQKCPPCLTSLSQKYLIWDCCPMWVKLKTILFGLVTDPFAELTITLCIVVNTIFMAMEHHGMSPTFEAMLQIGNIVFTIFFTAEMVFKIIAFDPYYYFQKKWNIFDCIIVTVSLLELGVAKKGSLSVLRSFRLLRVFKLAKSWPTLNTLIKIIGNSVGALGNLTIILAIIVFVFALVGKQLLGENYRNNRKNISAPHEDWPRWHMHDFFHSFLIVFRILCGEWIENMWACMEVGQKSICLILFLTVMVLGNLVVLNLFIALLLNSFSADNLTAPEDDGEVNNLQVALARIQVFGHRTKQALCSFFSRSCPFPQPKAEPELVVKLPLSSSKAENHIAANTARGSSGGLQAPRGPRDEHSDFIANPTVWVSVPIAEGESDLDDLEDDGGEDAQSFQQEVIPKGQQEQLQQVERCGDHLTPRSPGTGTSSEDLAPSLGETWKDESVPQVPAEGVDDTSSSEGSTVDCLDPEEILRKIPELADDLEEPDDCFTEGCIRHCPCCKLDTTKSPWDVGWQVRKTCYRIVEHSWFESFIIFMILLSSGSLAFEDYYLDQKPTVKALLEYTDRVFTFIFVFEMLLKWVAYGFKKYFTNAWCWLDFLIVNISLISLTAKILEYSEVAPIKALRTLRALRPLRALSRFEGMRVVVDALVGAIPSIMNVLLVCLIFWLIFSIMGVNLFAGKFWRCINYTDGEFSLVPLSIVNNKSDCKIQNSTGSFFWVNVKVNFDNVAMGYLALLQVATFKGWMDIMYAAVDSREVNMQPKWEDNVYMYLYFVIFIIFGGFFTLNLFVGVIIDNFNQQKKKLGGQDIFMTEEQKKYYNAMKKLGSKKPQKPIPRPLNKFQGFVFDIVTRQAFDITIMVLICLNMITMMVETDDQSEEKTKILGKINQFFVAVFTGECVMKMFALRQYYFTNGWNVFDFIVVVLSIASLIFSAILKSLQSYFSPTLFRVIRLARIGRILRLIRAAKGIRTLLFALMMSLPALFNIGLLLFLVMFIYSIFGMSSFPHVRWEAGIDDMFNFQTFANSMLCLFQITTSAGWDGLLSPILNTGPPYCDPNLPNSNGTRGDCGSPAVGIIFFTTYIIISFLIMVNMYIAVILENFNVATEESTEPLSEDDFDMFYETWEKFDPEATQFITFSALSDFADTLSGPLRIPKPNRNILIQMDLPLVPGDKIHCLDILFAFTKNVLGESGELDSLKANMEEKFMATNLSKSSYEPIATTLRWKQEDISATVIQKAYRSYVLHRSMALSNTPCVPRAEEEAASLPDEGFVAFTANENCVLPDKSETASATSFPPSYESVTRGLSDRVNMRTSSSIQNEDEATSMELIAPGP

IC50 [nM]	Compound
3.5	O=C1CN(C(=O)N[C@H](c2ccc(F)c(Cl)c2)C2CCC(C(F)(F)F)CC2)CCN1 (single isomer, unassigned) [Example 1A]
183	O=C1CN(C(=O)N[C@H](c2ccc(F)c(Cl)c2)C2CCC(C(F)(F)F)CC2)CCN1 (single isomer, unassigned) [Example 1B]
65.5	O=C1CN(C(=O)NC(c2ccc(F)c(Cl)c2)C2CC3CCC(C2)C3(F)F)CCN1 (single isomer, unassigned) [Example 2A, N-((R or S)-(3-chloro-4-fluoro-phenyl)(8,8-difluoro-bicyclo[3.2.1]octan-3-yl)methyl)-3-oxopiperazine-1-carboxamide]
410	O=C1CN(C(=O)NC(c2ccc(F)c(Cl)c2)C2CC3CCC(C2)C3(F)F)CCN1 (single isomer, unassigned) [Example 2B, N-((S or R)-(3-chloro-4-fluoro-phenyl)(8,8-difluroo-bicyclo[3.2.1]octan-3-yl)methyl)-3-oxopiperazine-1-carboxamide]
14.8	C[C@@H]1C(=O)NCCN1C(=O)NC(c1ccc(F)c(Cl)c1)C1CC2CCC(C1)C2(F)F (single isomer, unassigned) [Example 3A, (2R)-N-((R or S)-(3-chloro-4-fluoro-phenyl)(8,8-difluoro-bicyclo[3.2.1]octan-3-yl)methyl)-2-methyl-3-oxo-piperazine-1-carboxamide]
148	C[C@@H]1C(=O)NCCN1C(=O)NC(c1ccc(F)c(Cl)c1)C1CC2CCC(C1)C2(F)F (single isomer, unassigned) [Example 3B, (2R)-N-((S or R)-(3-chloro-4-fluoro-phenyl)(8,8-difluoro-bicyclo[3.2.1]octan-3-yl)methyl)-2-methyl-3-oxo-piperazine-1-carboxamide]
89.3	O=C1CN(C(=O)N[C@H](c2ccc(Cl)cc2)C2CCC(C(F)(F)F)CC2)CCN1 (single isomer, unassigned) [Example 4A, N-((R or S)-(4-chlorophenyl)(trans-4-(trifluoromethyl)-cyclohexyl)methyl)-3-oxopiperazine-1-carboxamide]
288	O=C1CN(C(=O)N[C@H](c2ccc(Cl)cc2)C2CCC(C(F)(F)F)CC2)CCN1 (single isomer, unassigned) [Example 4B, N-((S or R)-(4-chlorophenyl)(trans-4-(trifluoromethyl)-cyclohexyl)methyl)-3-oxopiperazine-1-carboxamide]
40.9	C[C@@H]1C(=O)NCCN1C(=O)N[C@H](c1ccc(F)c(Cl)c1)C1CCC(C(F)(F)F)CC1 (single isomer, unassigned) [Example 5A, (2R)-N-((R or S)-(3-chloro-4-fluoro-phenyl)(trans-4-(trifluoromethyl)cyclo-hexyl)methyl)-2-methyl-3-oxo-piperazine-1-carboxamide]
4.2	C[C@@H]1C(=O)NCCN1C(=O)N[C@H](c1ccc(F)c(Cl)c1)C1CCC(C(F)(F)F)CC1 (single isomer, unassigned) [Example 5B, (2R)-N-((S or R)-(3-chloro-4-fluoro-phenyl)(trans-4-(tri-fluoromethyl)cyclo-hexyl)methyl)-2-methyl-3-oxo-piperazine-1-carboxamide]
232	C[C@@H]1C(=O)NCCN1C(=O)NC(c1cc(F)c(F)c(F)c1)[C@H]1CC[C@H](C(F)(F)F)CC1 (single isomer, unassigned) [Example 6A, (R)-2-methyl-3-oxo-N-((R or S)-(trans-4-(trifluoromethyl)cyclo-hexyl)(3,4,5-tri-fluorophenyl)methyl) piperazine-1-carboxamide]
35.4	C[C@@H]1C(=O)NCCN1C(=O)NC(c1cc(F)c(F)c(F)c1)[C@H]1CC[C@H](C(F)(F)F)CC1 (single isomer, unassigned) [Example 6B, (R)-2-methyl-3-oxo-N-((S or R)-(trans-4-(trifluoromethyl)cyclo-hexyl)(3,4,5-tri-fluorophenyl)methyl) piperazine-1-carboxamide]

Source: patent US20220380338A1, “CYCLOALKYL 3-OXOPIPERAZINE CARBOXAMIDES AND CYCLOHETEROALKYL 3-OXOPIPERAZINE CARBOXAMIDES AS NAV1.8 INHIBITORS” (Merck Sharp & Dohme LLC, priority 2021, published 2022)
